Assay results published in the supplement of paper PMC10307832.

Experiments:
Experiment in all cases: relative viability (nuclei count vs DMSO), 5 days (fraction); higher = more cells survive
[1] = test system: NCI-H23
Procedure, shortened: (§1)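 The day after seeding in 1536-well plates, lung cancer cell lines were treated by pin tool with a single drug, or with a fixed anchor-drug dose together with five library-drug doses (not always all listed) in √10 steps. After 5 days, a combined fix-and-stain solution (final 0.05% Triton X-100, 1% formaldehyde, 1 ug/ml Hoechst) was added. Nuclei counted on 4× images gave relative viability as treated counts over vehicle counts, reported as the median of duplicate plates.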

[2] = test system: NCI-H1993
Procedure, shortened: as §1

[3] = test system: LK-2
Procedure, shortened: as §1

[4] = test system: NCI-H1666
Procedure, shortened: as §1

[5] = test system: PC-14
Procedure, shortened: as §1

[6] = test system: NCI-H2405
Procedure, shortened: as §1

[7] = test system: NCI-H2170
Procedure, shortened: as §1

[8] = test system: NCI-H3122
Procedure, shortened: as §1

[9] = test system: NCI-H1755
Procedure, shortened: as §1

[10] = test system: ABC-1
Procedure, shortened: as §1

[11] = test system: LU99A
Procedure, shortened: as §1

[12] = test system: NCI-H661; settings: first compound 0.08 µM
Procedure, shortened: as §1

## C=C1C(=O)O[C@@H](CCCCCCCC)[C@@H]1C(=O)O [C-75] + CC(=O)c1c(C)c2cnc(Nc3ccc(N4CCNCC4)cn3)nc2n(C2CCCC2)c1=O [Palbociclib] (partner 0.5 µM)
[1]; first compound 0.08 µM
  relative viability: 0.499
[1]; first compound 0.253 µM
  relative viability: 0.582
[1]; first compound 0.8 µM
  relative viability: 0.511
[1]; first compound 2.53 µM
  relative viability: 0.467
[1]; first compound 8 µM
  relative viability: 0.42
[2]; first compound 0.08 µM
  relative viability: 0.618
[2]; first compound 0.253 µM
  relative viability: 0.778
[2]; first compound 0.8 µM
  relative viability: 0.719
[2]; first compound 2.53 µM
  relative viability: 0.553
[2]; first compound 8 µM
  relative viability: 0.642
[3]; first compound 0.08 µM
  relative viability: 0.779
[3]; first compound 0.253 µM
  relative viability: 0.754
[3]; first compound 0.8 µM
  relative viability: 0.723
[3]; first compound 2.53 µM
  relative viability: 0.495
[3]; first compound 8 µM
  relative viability: 0.573
[4]; first compound 0.08 µM
  relative viability: 0.626
[4]; first compound 0.253 µM
  relative viability: 0.638
[4]; first compound 0.8 µM
  relative viability: 0.662
[4]; first compound 8 µM
  relative viability: 0.594
[5]; first compound 0.08 µM
  relative viability: 0.54
[5]; first compound 0.253 µM
  relative viability: 0.546
[5]; first compound 0.8 µM
  relative viability: 0.504
[5]; first compound 2.53 µM
  relative viability: 0.453
[5]; first compound 8 µM
  relative viability: 0.445
[6]; first compound 0.08 µM
  relative viability: 0.523
[6]; first compound 0.253 µM
  relative viability: 0.384
[6]; first compound 0.8 µM
  relative viability: 0.557
[6]; first compound 2.53 µM
  relative viability: 0.423
[6]; first compound 8 µM
  relative viability: 0.515
[7]; first compound 0.08 µM
  relative viability: 0.388
[7]; first compound 0.253 µM
  relative viability: 0.406
[7]; first compound 0.8 µM
  relative viability: 0.377
[7]; first compound 2.53 µM
  relative viability: 0.319
[7]; first compound 8 µM
  relative viability: 0.424
[8]; first compound 0.08 µM
  relative viability: 0.18
[8]; first compound 0.253 µM
  relative viability: 0.193
[8]; first compound 0.8 µM
  relative viability: 0.153
[8]; first compound 2.53 µM
  relative viability: 0.18
[8]; first compound 8 µM
  relative viability: 0.213
[9]; first compound 0.08 µM
  relative viability: 0.417
[9]; first compound 0.253 µM
  relative viability: 0.428
[9]; first compound 0.8 µM
  relative viability: 0.42
[9]; first compound 2.53 µM
  relative viability: 0.378
[9]; first compound 8 µM
  relative viability: 0.408
[10]; first compound 0.08 µM
  relative viability: 0.711
[10]; first compound 0.253 µM
  relative viability: 0.935
[10]; first compound 0.8 µM
  relative viability: 0.559
[10]; first compound 2.53 µM
  relative viability: 0.494
[10]; first compound 8 µM
  relative viability: 0.494
[11]; first compound 0.08 µM
  relative viability: 0.383
[11]; first compound 0.253 µM
  relative viability: 0.354
[11]; first compound 0.8 µM
  relative viability: 0.481
[11]; first compound 2.53 µM
  relative viability: 0.408
[11]; first compound 8 µM
  relative viability: 0.398
[12]
  relative viability: 0.429
